Assay results reported in patent publication US20250179047A1, “5-[7-(3,4-DIHYDRO-1H-ISOQUINOLINE-2-CARBONYL)-1,2,3,4 TETRAHYDROISOQUINOLIN-6-YL]-1H-PYRROLE-3-CARBOXAMIDE DERIVATIVES, PHARMACEUTICAL COMPOSITIONS CONTAINING THEM AND THEIR USES AS PRO-APOPTOTIC AGENTS” (LES LABORATOIRES SERVIER, priority 2022, published 2025).

Key:
BCL2 G101V [1] = assay: TR-FRET competitive binding assay, BCL2 G101V; set-up: species or system human; details: ratio Ki BCL2 G101V / Ki BCL2 WT
In short: (§1)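 Competitive TR-FRET displacement of fluorescein-PUMA peptide (2 or 20 nM) from 0.5 nM terbium-labelled N-terminal Halo-fusion BCL2 (1-207, wild type or mutant) or BCLXL (2-196), expressed in E. coli. Buffer 50 mM Hepes pH 7.5, 150 mM NaCl, 5% DMSO; 2 h at 23°C. 520/495 nm ratio fitted over 11 points for IC50, converted to Ki.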

BCL2 G101V [2] = molecular target: BCL2 G101V (Homo sapiens, UniProt P10415, G101V); assay: TR-FRET competitive binding assay, BCL2 G101V; details: BCL2 G101V; Ki determined from IC50; read-out: TR_FRET EKI_Bcl2 G101V
In short: as §1

BCL2 WT = BCL2 WT (Homo sapiens (Human), UniProt P10415); assay: TR-FRET competitive binding assay, BCL2 WT; details: Ki determined from IC50, read-out: TR_FRET EKI_Bcl2 WT
In short: as §1

KMS-12-PE Bcl-2 WT = assay: In vitro cytotoxicity CellTiter-Glo 48 h, KMS-12-PE Bcl-2 WT; format: cell-based; details: Homo sapiens, KMS-12-PE, C50 = concentration needed to reach 50% of the cellular viability
In short: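 CTG luminescence read-out; C50 = concentration reaching 50% cellular viability. Cells: KMS-12-PE expressing Bcl-2 WT or G101V (lentiviral, TagRFP-sorted). 11-pt curve, 48 h, 37 °C/5% CO2.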

BCL2 D103Y = BCL2 D103Y (Homo sapiens, UniProt P10415, D103Y); assay: TR-FRET competitive binding assay, BCL2 D103Y; details: Ki determined from IC50, read-out: TR_FRET EKI_Bcl2 D103Y
In short: as §1

BCLXL WT = BCLXL WT (Homo sapiens (Human), UniProt Q07817); assay: TR-FRET competitive binding assay, BCLXL WT; details: for Ki: BCLXL WT, Ki determined from IC50, read-out: TR_FRET EKI BclxL; for TR_FRET EKI BCLxL/WT selectivty ratio: ratio Ki BCLxL / Ki BCL2 WT
In short: as §1

BCLXL WT, sequence (Q07817 other isoform, or with tags, fused parts or gaps): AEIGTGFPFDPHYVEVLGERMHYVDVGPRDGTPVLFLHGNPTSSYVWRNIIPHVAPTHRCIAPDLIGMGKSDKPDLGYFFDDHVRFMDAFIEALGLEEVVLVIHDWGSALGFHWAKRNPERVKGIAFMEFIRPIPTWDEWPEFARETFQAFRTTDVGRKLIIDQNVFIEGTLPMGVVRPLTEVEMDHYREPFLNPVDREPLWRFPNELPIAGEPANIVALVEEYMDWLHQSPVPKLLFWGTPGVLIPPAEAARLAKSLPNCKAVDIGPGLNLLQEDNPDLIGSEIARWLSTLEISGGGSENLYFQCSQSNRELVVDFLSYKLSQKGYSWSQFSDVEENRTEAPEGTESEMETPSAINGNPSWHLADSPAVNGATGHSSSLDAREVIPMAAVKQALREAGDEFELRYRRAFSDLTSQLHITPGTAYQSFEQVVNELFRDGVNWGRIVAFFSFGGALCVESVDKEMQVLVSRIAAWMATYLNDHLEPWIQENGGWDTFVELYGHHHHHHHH

| Compound | TR_FRET EKI G101V/WT selectivty ratio (BCL2 G101V [1]) | Ki (BCL2 G101V [2]) [nM] | Ki (BCL2 WT) [nM] | IC50 (KMS-12-PE Bcl-2 WT) [µM] | Ki (BCL2 D103Y) [nM] | Ki (BCLXL WT) [nM] | TR_FRET EKI BCLxL/WT selectivty ratio (BCLXL WT) |
| --- | --- | --- | --- | --- | --- | --- | --- |
| CCn1cc(N(C(=O)c2cc(-c3cc4c(cc3C(=O)N3Cc5ccccc5C[C@H]3C)CN(C(=O)Cc3ccc(OCCN5CCOCC5)cc3)CC4)n(C)c2C)c2ccccc2)c(C)n1 [Example 210, N-(1-ethyl-3-methyl-pyrazol-4-yl)-1,2-dimethyl-5-[7-[(3R)-3-methyl-3,4-dihydro-1H-isoquinoline-2-carbonyl]-2-[2-[4-(2-morpholinoethoxy)phenyl]acetyl]-3,4-dihydro-1H-isoquinolin-6-yl]-N-phenyl-pyrrole-3-carboxamide] | 118.3 | 4.1 | 0.04 | 0.0395 | 0.11 | 29 | 828.6 |
| Cc1c(C(=O)N(c2ccccc2)c2cnn(C(F)F)c2)cc(-c2cc3c(cc2C(=O)N2Cc4ccccc4C[C@H]2CF)CN(C(=O)Cc2ccc(OCCN4CCOCC4)cc2)CC3)n1C [Example 211, N-[1-(difluoromethyl)pyrazol-4-yl]-5-[7-[(3S)-3-(fluoromethyl)-3,4-dihydro-1H-isoquinoline-2-carbonyl]-2-[2-[4-(2-morpholinoethoxy)phenyl]acetyl]-3,4-dihydro-1H-isoquinolin-6-yl]-1,2-dimethyl-N-phenyl-pyrrole-3-carboxamide] | 72.1 | 5.3 | 0.07 | 0.0157 | 0.18 | 26 | 351.4 |
| Cc1c(C(=O)N(c2ccccc2)c2cnn(C(F)F)c2)cc(-c2cc3c(cc2C(=O)N2Cc4ccccc4C[C@H]2C)CN(C(=O)Cc2ccc(C#CCN4CCOCC4)cc2)CC3)n1C [Example 212, N-[1-(difluoromethyl)pyrazol-4-yl]-1,2-dimethyl-5-[7-[(3R)-3-methyl-3,4-dihydro-1H-isoquinoline-2-carbonyl]-2-[2-[4-(3-morpholinoprop-1-ynyl)phenyl]acetyl]-3,4-dihydro-1H-isoquinolin-6-yl]-N-phenyl-pyrrole-3-carboxamide] | 37.0 | 1.7 | 0.05 | 0.006 | 0.13 | 4.8 | 104.3 |
| Cc1c(N(C(=O)c2cc(-c3cc4c(cc3C(=O)N3Cc5ccccc5C[C@H]3C)CN(C(=O)Cc3ccc(OCCN(C)C)cc3F)CC4)n(C)c2C)c2ccccc2)cc(C#N)n1C [Example 213, N-(5-cyano-1,2-dimethyl-pyrrol-3-yl)-5-[2-[2-[4-[2-(dimethylamino)ethoxy]-2-fluoro-phenyl]acetyl]-7-[(3R)-3-methyl-3,4-dihydro-1H-isoquinoline-2-carbonyl]-3,4-dihydro-1H-isoquinolin-6-yl]-1,2-dimethyl-N-phenyl-pyrrole-3-carboxamide] | 46.6 | 0.4 | 0.01 | 0.0053 | 0.03 | 1 | 108.9 |
| Cc1c(C(=O)N(c2ccccc2)c2cc(C#N)n(C(F)F)c2C)cc(-c2cc3c(cc2C(=O)N2Cc4ccccc4C[C@H]2C)CN(C(=O)Cc2ccc(OCCN4CCOCC4)cc2)CC3)n1C [Example 214, N-[5-cyano-1-(difluoromethyl)-2-methyl-pyrrol-3-yl]-1,2-dimethyl-5-[7-[(3R)-3-methyl-3,4-dihydro-1H-isoquinoline-2-carbonyl]-2-[2-[4-(2-morpholinoethoxy)phenyl]acetyl]-3,4-dihydro-1H-isoquinolin-6-yl]-N-phenyl-pyrrole-3-carboxamide] | 13.3 | 0.7 | 0.05 | 0.0035 | 0.12 | 8.6 | 168.6 |
| Cc1c(N(C(=O)c2cc(-c3cc4c(cc3C(=O)N3Cc5ccccc5C[C@H]3C)CN(C(=O)Cc3ccc(OCCN5CCOCC5)cc3)CC4)n(C)c2C)c2ccccc2)cnn1C(F)F [Example 215, N-[1-(difluoromethyl)-5-methyl-pyrazol-4-yl]-1,2-dimethyl-5-[7-[(3R)-3-methyl-3,4-dihydro-1H-isoquinoline-2-carbonyl]-2-[2-[4-(2-morpholinoethoxy)phenyl]acetyl]-3,4-dihydro-1H-isoquinolin-6-yl]-N-phenyl-pyrrole-3-carboxamide] | 80.9 | 4.6 | 0.06 | 0.0147 | 0.13 | 16 | 280.7 |
| Cc1c(C(=O)N(c2ccccc2)c2cnn(C)c2)cc(-c2cc3c(cc2C(=O)N2Cc4ccccc4C[C@H]2C)CN(C(=O)Cc2cccc(C4CCN(C)CC4)c2)CC3)n1C [Example 216, 1,2-dimethyl-5-[7-[(3R)-3-methyl-3,4-dihydro-1H-isoquinoline-2-carbonyl]-2-[2-[3-(1-methyl-4-piperidyl)phenyl]acetyl]-3,4-dihydro-1H-isoquinolin-6-yl]-N-(1-methylpyrazol-4-yl)-N-phenyl-pyrrole-3-carboxamide] | 125.5 | 6.4 | 0.05 | 0.0449 | 0.33 | 2.6 | 50.1 |
| Cc1c(C(=O)N(c2ccccc2)c2cnn(C)c2)cc(-c2cc3c(cc2C(=O)N2Cc4ccccc4C[C@H]2C)CN(C(=O)Cc2cccc(N4CC5(CN(C)C5)C4)c2)CC3)n1C [Example 217, 1,2-dimethyl-5-[2-[2-[3-(6-methyl-2,6-diazaspiro[3.3]heptan-2-yl)phenyl]acetyl]-7-[(3R)-3-methyl-3,4-dihydro-1H-isoquinoline-2-carbonyl]-3,4-dihydro-1H-isoquinolin-6-yl]-N-(1-methylpyrazol-4-yl)-N-phenyl-pyrrole-3-carboxamide] | 88.7 | 2 | 0.02 | 0.0453 | 0.09 | 0.6 | 24.9 |
| Cc1c(C(=O)N(c2ccccc2)c2cccc(C#N)c2)cc(-c2cc3c(cc2C(=O)N2Cc4ccccc4C[C@H]2C)CN(C(=O)Cc2ccc(OCCN4CCOCC4)cc2)CC3)n1C [Example 218, N-(3-cyanophenyl)-1,2-dimethyl-5-[7-[(3R)-3-methyl-3,4-dihydro-1H-isoquinoline-2-carbonyl]-2-[2-[4-(2-morpholinoethoxy)phenyl]acetyl]-3,4-dihydro-1H-isoquinolin-6-yl]-N-phenyl-pyrrole-3-carboxamide] | 45.3 | 1.5 | 0.03 | 0.0142 | 0.08 | 13.8 | 418.1 |
| COc1ncc(N(C(=O)c2cc(-c3cc4c(cc3C(=O)N3Cc5ccccc5C[C@H]3C)CN(C(=O)Cc3ccc(OCCN(C)C)cc3F)CC4)n(C)c2C)c2ccccc2)cc1F [Example 219, 5-[2-[2-[4-[2-(dimethylamino)ethoxy]-2-fluoro-phenyl]acetyl]-7-[(3R)-3-methyl-3,4-dihydro-1H-isoquinoline-2-carbonyl]-3,4-dihydro-1H-isoquinolin-6-yl]-N-(5-fluoro-6-methoxy-3-pyridyl)-1,2-dimethyl-N-phenyl-pyrrole-3-carboxamide] | 89.8 | 4.6 | 0.05 | 0.131 | 0.13 | 2.9 | 57.8 |
| Cc1c(C(=O)N(c2ccccc2)c2ccnn2C)cc(-c2cc3c(cc2C(=O)N2Cc4ccccc4C[C@H]2C)CN(C(=O)Cc2ccc(OCCN4CCOCC4)cc2)CC3)n1C [Example 220, 1,2-dimethyl-5-[7-[(3R)-3-methyl-3,4-dihydro-1H-isoquinoline-2-carbonyl]-2-[2-[4-(2-morpholinoethoxy)phenyl]acetyl]-3,4-dihydro-1H-isoquinolin-6-yl]-N-(2-methylpyrazol-3-yl)-N-phenyl-pyrrole-3-carboxamide] | 109.9 | 14.3 | 0.13 | 0.0907 | 0.37 | 42.3 | 325.6 |
| Cc1nn(C)cc1N(C(=O)c1cc(-c2cc3c(cc2C(=O)N2Cc4ccccc4C[C@H]2C)CN(C(=O)Cc2ccc(OCCN(C)C)cc2)CC3)n(C)c1C)c1ccccc1 [Example 221, 5-[2-[2-[4-[2-(dimethylamino)ethoxy]phenyl]acetyl]-7-[(3R)-3-methyl-3,4-dihydro-1H-isoquinoline-2-carbonyl]-3,4-dihydro-1H-isoquinolin-6-yl]-N-(1,3-dimethylpyrazol-4-yl)-1,2-dimethyl-N-phenyl-pyrrole-3-carboxamide] | 79.5 | 19.1 | 0.24 | 0.121 | 0.53 | 28.3 | 118.0 |
